Measurements taken from patent US10513521B2, “Compositions and methods for inhibiting BMP” (The Brigham and Women's Hospital, Inc., priority 2014, dated 2019).

Key:
ALK3 = ALK3 (Homo sapiens, UniProt P36894); test: TR-FRET enzymatic ALK kinase assay, ALK3
Protocol: (§1) Briefly, the ALKs enzymatic assay was initiated by dispense 2.5 μl enzyme in 1× kinase reaction buffer. The assay plate was then added with compounds followed by incubation at room temperature for 10 minutes. Then 2.5 μl/well substrate was added.

ALK5 = biological target: T1, ALK5 (Homo sapiens, UniProt P36897); test: TR-FRET enzymatic ALK kinase assay, ALK5
T1 sequence (P36897 34-503): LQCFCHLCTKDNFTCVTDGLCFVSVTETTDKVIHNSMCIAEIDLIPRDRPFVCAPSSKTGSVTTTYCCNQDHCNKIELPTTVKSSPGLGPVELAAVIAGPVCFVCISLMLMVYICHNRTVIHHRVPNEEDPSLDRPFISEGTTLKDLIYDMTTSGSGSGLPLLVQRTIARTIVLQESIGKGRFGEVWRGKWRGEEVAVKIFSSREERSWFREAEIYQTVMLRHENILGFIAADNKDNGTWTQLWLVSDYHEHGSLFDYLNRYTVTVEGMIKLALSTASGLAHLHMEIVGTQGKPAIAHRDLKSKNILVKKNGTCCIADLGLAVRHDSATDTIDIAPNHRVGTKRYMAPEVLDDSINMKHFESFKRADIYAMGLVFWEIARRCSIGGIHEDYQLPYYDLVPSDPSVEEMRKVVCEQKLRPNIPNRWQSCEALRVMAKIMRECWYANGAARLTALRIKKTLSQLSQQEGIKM
Protocol: Six ALK kinase enzyme assays were developed for determination of compound activities on ALK1, ALK2, ALK3, ALK4, ALK5 and ALK6.
as §1

ALK1 = ALK1 (Homo sapiens, UniProt P37023); test: TR-FRET enzymatic ALK kinase assay, ALK1
Chain of ALK1 (P37023 22-503): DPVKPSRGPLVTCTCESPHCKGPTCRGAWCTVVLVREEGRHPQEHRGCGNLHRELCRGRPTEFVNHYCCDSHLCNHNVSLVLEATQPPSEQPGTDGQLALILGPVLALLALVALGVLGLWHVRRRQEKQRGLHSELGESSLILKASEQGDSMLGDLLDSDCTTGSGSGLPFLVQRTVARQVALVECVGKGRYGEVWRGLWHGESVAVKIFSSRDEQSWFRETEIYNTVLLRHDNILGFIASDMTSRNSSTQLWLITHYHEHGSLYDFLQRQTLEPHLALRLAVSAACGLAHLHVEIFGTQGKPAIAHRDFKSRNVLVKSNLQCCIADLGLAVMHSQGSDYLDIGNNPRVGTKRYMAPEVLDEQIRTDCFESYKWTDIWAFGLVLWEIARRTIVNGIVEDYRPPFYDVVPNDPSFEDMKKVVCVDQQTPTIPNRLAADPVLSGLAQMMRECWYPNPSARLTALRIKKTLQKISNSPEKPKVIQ
Protocol: as §1

ALK6 = ALK6 (Homo sapiens, UniProt O00238); test: TR-FRET enzymatic ALK kinase assay, ALK6
Chain of ALK6 (O00238 14-502): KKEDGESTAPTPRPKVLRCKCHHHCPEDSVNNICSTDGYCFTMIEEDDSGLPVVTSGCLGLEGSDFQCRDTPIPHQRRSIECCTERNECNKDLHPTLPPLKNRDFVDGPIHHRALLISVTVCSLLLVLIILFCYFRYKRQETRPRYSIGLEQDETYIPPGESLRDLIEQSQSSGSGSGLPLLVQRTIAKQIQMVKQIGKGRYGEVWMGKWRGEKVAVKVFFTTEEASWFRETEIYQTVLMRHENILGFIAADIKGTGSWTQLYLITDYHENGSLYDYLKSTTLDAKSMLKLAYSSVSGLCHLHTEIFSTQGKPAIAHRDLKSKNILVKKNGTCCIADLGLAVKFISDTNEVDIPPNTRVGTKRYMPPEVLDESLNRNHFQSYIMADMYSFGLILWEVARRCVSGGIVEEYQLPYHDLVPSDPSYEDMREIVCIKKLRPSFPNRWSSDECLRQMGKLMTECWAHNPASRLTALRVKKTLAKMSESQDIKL
Protocol: as §1

ALK2 = biological target: T2, ALK2 (Homo sapiens, UniProt Q04771); test: TR-FRET enzymatic ALK kinase assay, ALK2
T2 sequence (Q04771 21-509): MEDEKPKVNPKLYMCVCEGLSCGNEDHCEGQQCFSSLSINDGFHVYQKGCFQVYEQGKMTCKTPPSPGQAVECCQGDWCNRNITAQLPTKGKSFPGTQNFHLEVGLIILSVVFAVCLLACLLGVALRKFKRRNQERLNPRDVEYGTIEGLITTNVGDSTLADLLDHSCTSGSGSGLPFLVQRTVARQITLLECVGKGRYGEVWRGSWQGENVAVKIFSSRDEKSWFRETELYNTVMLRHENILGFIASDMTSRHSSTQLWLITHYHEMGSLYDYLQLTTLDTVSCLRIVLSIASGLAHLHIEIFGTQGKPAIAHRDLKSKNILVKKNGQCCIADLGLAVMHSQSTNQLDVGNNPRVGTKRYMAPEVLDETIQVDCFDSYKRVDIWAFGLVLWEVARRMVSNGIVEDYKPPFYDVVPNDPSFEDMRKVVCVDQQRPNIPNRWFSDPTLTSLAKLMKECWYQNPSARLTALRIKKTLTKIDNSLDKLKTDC
Protocol: as §1

ALK4 = biological target: T3, ALK4 (Homo sapiens, UniProt P36896); test: TR-FRET enzymatic ALK kinase assay, ALK4
T3 sequence (P36896 24-505): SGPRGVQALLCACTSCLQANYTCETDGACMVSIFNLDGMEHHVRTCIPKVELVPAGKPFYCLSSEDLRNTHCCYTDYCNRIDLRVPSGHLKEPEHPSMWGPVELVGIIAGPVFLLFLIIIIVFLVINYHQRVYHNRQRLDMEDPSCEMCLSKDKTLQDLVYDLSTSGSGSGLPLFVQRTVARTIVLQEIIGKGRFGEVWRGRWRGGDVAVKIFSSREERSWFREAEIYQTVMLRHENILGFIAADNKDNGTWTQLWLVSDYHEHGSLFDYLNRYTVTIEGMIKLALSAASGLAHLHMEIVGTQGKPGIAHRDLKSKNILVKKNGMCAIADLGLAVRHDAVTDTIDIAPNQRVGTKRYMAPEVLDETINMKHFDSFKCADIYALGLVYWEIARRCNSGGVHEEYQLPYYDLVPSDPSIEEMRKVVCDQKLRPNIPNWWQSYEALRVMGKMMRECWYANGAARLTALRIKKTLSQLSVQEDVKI
Protocol: as §1

Chain of ALK3 (P36894 24-532): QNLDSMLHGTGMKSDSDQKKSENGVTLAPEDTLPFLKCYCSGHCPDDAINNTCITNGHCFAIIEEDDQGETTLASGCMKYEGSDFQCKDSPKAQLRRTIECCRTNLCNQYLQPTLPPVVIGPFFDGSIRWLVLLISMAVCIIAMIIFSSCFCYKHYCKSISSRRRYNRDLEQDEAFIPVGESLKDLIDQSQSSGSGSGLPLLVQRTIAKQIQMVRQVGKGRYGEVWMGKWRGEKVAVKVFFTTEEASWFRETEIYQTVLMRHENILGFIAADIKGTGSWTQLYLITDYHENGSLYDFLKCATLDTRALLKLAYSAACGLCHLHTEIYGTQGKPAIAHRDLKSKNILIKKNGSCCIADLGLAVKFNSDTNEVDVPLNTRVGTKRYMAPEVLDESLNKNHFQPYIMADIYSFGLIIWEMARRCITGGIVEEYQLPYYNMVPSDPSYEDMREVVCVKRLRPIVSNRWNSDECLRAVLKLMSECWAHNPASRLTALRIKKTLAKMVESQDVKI

Row | SMILES | IC50 (ALK3) [nM] | IC50 (ALK5) [nM] | IC50 (ALK1) [nM] | IC50 (ALK6) [nM] | IC50 (ALK2) [nM] | IC50 (ALK4) [nM] | activity in the higher ATP concentrations (concentration-response curves) (ALK1; ALK1, in the presence of 10, 100, or 1,000 µM ATP, FIG. 3) | activity in the higher ATP concentrations (concentration-response curves) (ALK2; ALK2, in the presence of 10, 100, or 1,000 µM ATP, FIG. 3)
1 | C[C@@H](O)c1cccc(-c2cnn3cc(-c4ccc(CCN5CCCC(O)C5)cc4)cnc23)c1 (some centres unmarked) [Compound 157] | 5900 | > 10000 | 760 | > 10000 | 120 | > 10000 | – | –
2 | NS(=O)(=O)c1ccc(-c2cnn3cc(-c4ccc(OC5(CN6CCCCC6)CC5)cc4)cnc23)c2ccccc12 [Compound 208, 4-(6-(4-(1-(piperidin-1-ylmethyl)cyclopropoxy)phenyl)pyrazolo[1,5-a]pyrimidin-3-yl)naphthalene-1-sulfonamide] | > 10000 | > 10000 | 200 | > 10000 | 15 | > 10000 | – | –
3 | C[C@H](O)c1cccc(-c2cnn3cc(-c4ccc(OC5(CN6CCCCC6)CC5)cc4)cnc23)c1 [Compound 199, (S)-1-(3-(6-(4-(1-(piperidin-1-ylmethyl)cyclopropoxy)phenyl)pyrazolo[1,5-a]pyrimidin-3-yl)phenyl)ethanol] | 620 | > 10000 | 610 | 9800 | 25 | > 10000 | – | –
4 | CC(O)c1cccc(-c2cnn3cc(-c4ccc(OCCN5CCCC5)cc4)cnc23)c1 (centres unmarked) [Compound 145, 1-(3-(6-(4-(2-(pyrrolidin-1-yl)ethoxy)phenyl)pyrazolo[1,5-a]pyrimidin-3-yl)phenyl)ethanol] | 2600 | > 10000 | 1000 | > 10000 | 63 | > 10000 | – | –
5 | NS(=O)(=O)c1ccc(-c2cnn3cc(-c4ccc(OC(F)(F)CN5CCCCC5)cc4)cnc23)c2ccccc12 [Compound 206, 4-(6-(4-(1,1-difluoro-2-(piperidin-1-yl)ethoxy)phenyl)pyrazolo[1,5-a]pyrimidin-3-yl)naphthalene-1-sulfonamide] | > 10000 | > 10000 | 4600 | > 10000 | 1200 | > 10000 | – | –
6 | NC(c1cccc(-c2cnn3cc(-c4ccc(OCCN5CCCC5)cc4)cnc23)c1)C(F)(F)F (centres unmarked) [Compound 161] | 9400 | > 10000 | 1600 | > 10000 | 150 | > 10000 | – | –
7 | CC(O)c1cccc(-c2cnn3cc(-c4ccc(CCN5CCC(O)CC5)cc4)cnc23)c1 (centres unmarked) [Compound 151, 1-(4-(3-(3-(1-hydroxyethyl)phenyl)pyrazolo[1,5-a]pyrimidin-6-yl)phenethyl)piperidin-4-ol] | 4300 | > 10000 | 820 | > 10000 | 110 | > 10000 | – | –
8 | CS(=O)(=O)c1cccc(-c2cnn3cc(-c4ccc(CCN5CCC(O)C5)cc4)cnc23)c1 (centres unmarked) [Compound 132, 1-(4-(3-(3-(methylsulfonyl)phenyl)pyrazolo[1,5-a]pyrimidin-6-yl)phenethyl)pyrrolidin-3-ol] | 6400 | > 10000 | 630 | > 10000 | 130 | > 10000 | – | –
9 | CC(O)c1cccc(-c2cnn3cc(-c4ccc(C5(N)CC5)cc4)cnc23)c1 (centres unmarked) [Compound 191, 1-(3-(6-(4-(1-aminocyclopropyl)phenyl)pyrazolo[1,5-a]pyrimidin-3-yl)phenyl)ethanol] | 5400 | > 10000 | 1500 | > 10000 | 120 | > 10000 | – | –
10 | NC(c1ccc(-c2cnn3cc(-c4ccc(OCCN5CCCC5)cc4)cnc23)c2ccccc12)C(F)(F)F (centres unmarked) [Compound 162, 2,2,2-trifluoro-1-(4-(6-(4-(2-(pyrrolidin-1-yl)ethoxy)phenyl)pyrazolo[1,5-a]pyrimidin-3-yl)naphthalen-1-yl)ethanamine] | > 10000 | > 10000 | > 10000 | > 10000 | 8100 | > 10000 | – | –
11 | CC(N)c1ccc(-c2cnc3c(-c4ccc(S(N)(=O)=O)c5ccccc45)cnn3c2)cc1 (centres unmarked) [Compound 189, 4-(6-(4-(1-aminoethyl)phenyl)pyrazolo[1,5-a]pyrimidin-3-yl)naphthalene-1-sulfonamide] | – | > 10000 | 350 | > 10000 | – | > 10000 | – | –
12 | c1ccc2c(-c3cnn4cc(-c5ccc(N6CCNCC6)cc5)cnc34)ccnc2c1 [Compound A, reference compound] | – | – | – | – | – | – | reduced | reduced

Next, values leading:

Row | IC50 (ALK3) [nM] | IC50 (ALK5) [nM] | IC50 (ALK1) [nM] | IC50 (ALK6) [nM] | IC50 (ALK2) [nM] | IC50 (ALK4) [nM] | activity in the higher ATP concentrations (concentration-response curves) (ALK1; ALK1, in the presence of 10, 100, or 1,000 µM ATP, FIG. 3) | activity in the higher ATP concentrations (concentration-response curves) (ALK2; ALK2, in the presence of 10, 100, or 1,000 µM ATP, FIG. 3) | SMILES
13 | 224 | 13500 | 109 | 622 | 19 | 4030 | – | – | CC(=O)c1ccc(-c2cnn3cc(-c4ccc(N5[C@H](C)CNC[C@@H]5C)cc4)cnc23)c2ccccc12 [Compound 27, 1-(4-(6-(4-((2R,6S)-2,6-dimethylpiperazin-1-yl)phenyl)pyrazolo[1,5-a]pyrimidin-3-yl)naphthalen-1-yl)ethanone]
14 | 1610 | 22900 | 305 | 2380 | 206 | 7980 | – | – | C[C@@H]1CNC[C@H](C)N1c1ccc(-c2cnc3c(-c4ccc(C(=O)C(F)(F)F)c5ccccc45)cnn3c2)cc1 [Compound 30, 1-(4-(6-(4-((2R,6S)-2,6-dimethylpiperazin-1-yl)phenyl)pyrazolo[1,5-a]pyrimidin-3-yl)naphthalen-1-yl)-2,2,2-trifluoroethanone]
15 | > 10000 | > 10000 | 7500 | 1200 | 550 | > 10000 | – | – | C[C@@H]1CNC[C@H](C)N1c1ccc(-c2cnc3c(-c4cc(C(F)(F)F)cc(S(C)(=O)=O)c4)cnn3c2)cc1 [Compound 193, 6-(4-((2R,6S)-2,6-dimethylpiperazin-1-yl)phenyl)-3-(3-(methylsulfonyl)-5-(trifluoromethyl)phenyl)pyrazolo[1,5-a]pyrimidine]
16 | – | – | 9480 | – | 3040 | – | – | – | Cc1cc(S(N)(=O)=O)ccc1-c1cnn2cc(-c3ccc(N4[C@H](C)CNC[C@@H]4C)cc3)cnc12 [Compound 36, 4-(6-(4-((2R,6S)-2,6-dimethylpiperazin-1-yl)phenyl)pyrazolo[1,5-a]pyrimidin-3-yl)-3-methylbenzenesulfonamide]
17 | – | – | 1790 | – | – | – | – | – | C[C@@H]1CNC[C@H](C)N1c1ccc(-c2cnc3c(-c4ccc(S(N)(=O)=O)cc4)cnn3c2)cc1 [Compound 38, 4-(6-(4-((2R,6S)-2,6-dimethylpiperazin-1-yl)phenyl)pyrazolo[1,5-a]pyrimidin-3-yl)benzenesulfonamide]
18 | – | – | 811 | – | – | – | – | – | Cc1cc(-c2cnn3cc(-c4ccc(N5[C@H](C)CNC[C@@H]5C)cc4)cnc23)ccc1S(N)(=O)=O [Compound 37, 4-(6-(4-((2R,6S)-2,6-dimethylpiperazin-1-yl)phenyl)pyrazolo[1,5-a]pyrimidin-3-yl)-2-methylbenzenesulfonamide]
19 | 168 | – | 133 | 113 | 23 | – | – | – | C[C@@H]1CNC[C@H](C)N1c1ccc(-c2cnc3c(-c4cccc5c(-c6nn[nH]n6)cccc45)cnn3c2)cc1 [Compound 28, 3-(5-(1H-tetrazol-5-yl)naphthalen-1-yl)-6-(4-((2R,6S)-2,6-dimethylpiperazin-1-yl)phenyl)pyrazolo[1,5-a]pyrimidine]
